From patent US11571485B2, “Peptides and antibodies for detecting changes in alzheimer's disease brain and methods of use thereof” (Sanford Burnham Prebys Medical Discovery Institute, priority 2016, dated 2023)
Bridges are numbered along the chain shown (N, C = ends). FAM = fluorescein-amide / fluoresceinamine label

Key:
[1] = system: hippocampus of hAPP-J20 AD and wild-type mice; assay: In vivo CX7C T7 phage library screen, sequencing of phage recovered from hippocampus; set-up: species or system mouse; conditions: for Frequency/%: hippocampus 30 min after i.v. phage library, high throughput sequencing of inserts; for Representation in sequenced phage pools, AD versus normal brain: 9-month AD mouse vs normal mouse hippocampus
Protocol: In vivo phage screening was conducted using a T7 phage library expressing random peptides with the composition of CXnC (C=cysteine; X=any amino acid; n=7). The mouse model used for this screening is the hAPP-J20 that expresses amyloid precursor protein (APP) with both the Swedish and Indiana mutations (Murrell et al., Science 254, 97-99. (1991); Mullan et al., Nat. Genet. 1, 345-347. (1992)). Peptides homing to the hippocampus of these mice was the focus because the hippocampal region is where the AB-related lesions and damage are most prevalent early on in the disease.
A CX7C phage library was intravenously injected into 9 month-old AD and wild-type (WT) littermate mice, and allowed to circulate for 30 min, after which mice were perfused with saline, brains were collected, and the hippocampal region was dissected and subjected to phage titration and high throughput sequencing of the phage inserts. A surprise result was that the number of phage recovered from the AD hippocampus samples was much higher than the number recovered from a similar screen on normal littermates of the AD mice (FIG. 1A). […] BBB leakage has also been reported in AD patients.
Parallel phage library screens were performed on a normal mouse and a 9-month old AD transgenic mouse (J20 hAPP tg mouse line, which expresses transgenic amyloid precursor protein with two disease-related mutations). The library was intravenously injected into anesthetized mice and the hippocampal area of the brain was collected 30 min after intravenous injection of the library, phage was isolated from the tissue samples and subjected to high throughput sequencing of the peptide-encoding inserts in the phage DNA. Table 1 list most abundantly represented peptide from the two kinds of brains, and all peptides with significant representation in the AD brain and absent or nearly absent in the normal brain are listed in Table 2. Two peptides, CASPRLSKC (SEQ ID NO: 3) and CESPLLSEC (SEQ ID NO: 11), from among the highest scoring ones were subjected to detailed studies as described below.
hAPP-J20 mice were intravenously injected with 1e10 pfu of a CX7C (wherein X is any amino acid) naïve phage library, in 100 μL of PBS. The library was allowed to circulate for 30 minutes, after which mice were anesthetized with 2.5% avertin and perfused with PBS intracardially. The brain was removed and the hippocampus was extracted and homogenized in LB-NP 40 (1%) and phage was processed as described (Teesalu et al., Methods Enzymol 503, 35-56 (2012)). The phages in the lysate were rescued by amplification in E. coli and peptide-encoding portion of the phage genome was sequenced using Ion Torrent high throughput sequencing.

[2] = system: hAPP-J20 mouse brain (hippocampus); conditions: i.v., 30 min circulation, 9-month-old AD (hAPP-J20) vs normal/WT mice
Protocol: The synthetic peptides were labeled with FAM and 100 nmol and were intravenously injected to 9-month old AD mice through the tail vein. The peptides were allowed to circulate for 30 min, after which the mice were perfused with 20 ml of PBS, the brains were collected and snap-frozen in OCT for sectioning. The peptides were detected by anti-FAM staining (green), nuclei were stained with DAPI (blue), and anti-CD31 was used to visualize blood vessels.
For peptide homing, mice were intravenously injected with 50 nmole peptide dissolved in PBS, and allowed to circulate for 30 min. Mice were then perfused intracardially with saline and all major organs were isolated and fixed in 4% paraformaldehyde (PFA) at pH 7.4 overnight. The organs were then washed with PBS and placed in graded sucrose solutions overnight before optimal cutting temperature compound (OCT) embedding. Ten-micro-meter-thick sections were cut and analyzed by immunostaining.
Frozen sections were permeabilized using PBS- 0.2% Triton™ X-100 (PBST), blocking was carried out using blocking buffer (5% BSA, 1% goat serum, 1% donkey serum in PBST. Primary antibodies were incubated in diluted (1%) blocking buffer overnight at dilutions 1/100 or 1/200 at 4° C., washed with PBST and incubated with secondary antibodies diluted 1/200 or 1/500 in 1% diluted buffer for 1 hour at room temperature, subsequently washed with PBST, counterstained with DAPI 1 μg/mL in PBS for 5 minutes, washed with PBS, mounted using aqueous mounting media (Vector Biolabs), and imaged using a confocal microscope (Zeiss LSM-710).

[3] = system: AD hippocampus; assay: Homing of intravenously injected individual peptide-displaying phages; type: in vivo, mouse; conditions: intravenously injected phage displaying the peptide
Description: FIG. 1B relates to phage titration showing that about 5 times more phage were recovered from the AD hippocampus than from the normal control. In the sequencing, phages displaying the peptides code named CASP (SEQ ID NO: 3; CASPRLSKC), CES (SEQ ID NO: 11, CESPLLSEC), and DAG (SEQ ID NO: 102, CDAGRKQKC) dominated. Hippocampus from age-matched normal wild-type mouse brain was used as a control.

[4] = molecular target: T1, recombinant human CTGF (Homo sapiens, UniProt P29279); assay: ELISA binding to recombinant CTGF; conditions: non-labeled DAG 0.5 mM
T1 construct: purchased Affymetrix 14-8503-80
T1 sequence (P29279 253-349 limits assumed): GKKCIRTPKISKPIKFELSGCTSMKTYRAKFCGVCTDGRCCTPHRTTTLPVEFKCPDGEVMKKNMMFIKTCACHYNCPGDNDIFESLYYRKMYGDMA
Protocol: FIG. 10 is a graphical representation relating to identification of a receptor for DAG. DAG binds to recombinant CTGF. FAM-DAG was incubated on ELISA plate coated with recombinant human CTGF at two different peptide concentrations of the FAM peptide alone (light gray bars), or in the presence of non-labeled DAG (0.5 mM) (dark gray bars). […] DAG was also shown to colocalize with CTGF. FAM-DAG was intravenously injected in 9-month-old hAPP-J20 and WT mice, allowed to circulate for 30 minutes, after which mice were perfused, and the brains were fixed, sectioned and stained for FAM (green) and CTGF (red).
Human CTGF recombinant protein (Affymetrix Cat #14-8503-80) was incubated on Nunc low-binding plates at concentration of 10 μg/ml for overnight at 4° C. Excess protein in the plates was removed by washing with PBS-T (PBS with 0.005% Tween 20). Plates were blocked with 200 μl of 3% non-fat milk in PBS for 1 hour at room temperature and washed with PBS-T once. Biotin-labeled peptide (at different concentrations) in PBS was added to the plate for 2 hours at 37° C. For peptide inhibition, non-labeled DAG peptide (0.5 mM) was added 30 minutes prior to addition of labeled peptide. The plates were washed with 100 μl PBS-T for three times to remove excess peptide. The bound peptide was detected by incubating with 100 μl of Vectastain ABC™ reagent (Vector labs, Burlingame, Calif.) for 30 minutes. The plate was washed with 100 μl PBS-T three times. Next, 100 μl of o-phenylenediamine dihydrochloride (OPD) silver and gold substrate (Sigma-Aldrich) was added to the wells and incubated at room temperature until visible color was observed (˜30 min). Adding 50 μl of 1 M H2SO4 stopped the reaction and the plate was read at 495 nm (FlexStation™ 3 Reader, Molecular Devices, Sunnyvale, Calif., USA).

[5] = Alzheimer's mouse (9-month old J20 hAPP tg)

| Substance | Frequency/% ([1]; Wild-type mouse) | Frequency/% [1, 5] | other results |
| --- | --- | --- | --- |
| CADDGC [SEQ ID NO: 94] | 1.244% | – | – |
| CARVKK [SEQ ID NO: 91] | 1.67% | – | – |
| CASPRLSKC [SEQ ID NO: 3] | – | 0.7226% | Homing of FAM-labeled peptide to hippocampus [2]: homed to the dentate gyms of AD brain but not normal brain; Representation in sequenced phage pools, AD versus normal brain [1]: dominated; Phage accumulation in normal brain [3]: no accumulation in normal brain; Phage homing to AD hippocampus [3]: home to AD hippocampus with high specificity |
| CATPRDKRTC [SEQ ID NO: 87] | 2.373% | – | – |
| CELSQ [SEQ ID NO: 97] | 1.089% | – | – |
| CEQVRQKRC [SEQ ID NO: 4] | – | 0.3956% | – |
| CESPLLSEC [SEQ ID NO: 11] | – | 0.316% | Homing of FAM-labeled peptide to hippocampus [2]: homed to the dentate gyms of AD brain but not normal brain; Representation in sequenced phage pools, AD versus normal brain [1]: dominated; Phage accumulation in normal brain [3]: no accumulation in normal brain; Phage homing to AD hippocampus [3]: home to AD hippocampus with high specificity |
| CKVRKSEGC [SEQ ID NO: 85] | 3.559% | – | – |
| CLSLD [SEQ ID NO: 88] | 2.286% | – | – |
| CLTDNEETC [SEQ ID NO: 7] | – | 0.3341% | – |
| CNSKETSRC [SEQ ID NO: 5] | – | 0.3885% | – |
| CRKQGEAKC [reference compound] | – | – | Homing of FAM-labeled peptide to hippocampus [2]: essentially no homing to the hippocampus of hAPP-J20 mice |
| CRKQPTNVC [SEQ ID NO: 92] | 1.495% | – | – |
| CRTPLNPRC [SEQ ID NO: 95] | 1.171% | – | – |
| CSDRRLIDC [SEQ ID NO: 90] | 1.737% | – | – |
| CSGDMETKC [SEQ ID NO: 89] | 1.846% | – | – |
| CSGKAQRGC [SEQ ID NO: 100] | – | 0.3349% | – |
| CSKTTE [SEQ ID NO: 2] | – | 0.8549% | – |
| CSPE [SEQ ID NO: 6] | – | 0.3766% | – |
| CSRTSKQAC [SEQ ID NO: 98] | 1.022% | – | – |
| CSTNA [SEQ ID NO: 93] | 1.426% | – | – |
| CTKTAK [SEQ ID NO: 10] | – | 0.3191% | – |
| CTREGNETC [SEQ ID NO: 96] | 1.098% | – | – |
| CTVNGKRSC [SEQ ID NO: 99] | 0.9707% | – | – |
| CVPKGKLVC [SEQ ID NO: 84] | 4.678% | – | – |
| CVPKGKLVLLSL [SEQ ID NO: 86] | 2.377% | – | – |
| FAM-CASPRLSKC: fluorescein-amide (FAM)-labeled CASPRLSKC peptide ({FAM}-CASPRLSKC-NH2; cysteine pairing not given here) | – | – | Homing of FAM-labeled peptide to hippocampus [2]: homed to AD, but not normal, hippocampus |
| FAM-CESPLLSEC: fluorescein-amide (FAM)-labeled CESPLLSEC peptide ({FAM}-CESPLLSEC-NH2; cysteine pairing not given here) | – | – | Homing of FAM-labeled peptide to hippocampus [2]: homed to AD, but not normal, hippocampus |
| FAM-DAG: Fluoresceinamine (FAM)-labeled synthetic DAG peptide ({FAM}-CDAGRKQKC-NH2; disulfide 1-9 (inferred); not fully specified) | – | – | Inhibition of CTGF binding by unlabeled DAG [4]: Non-labeled DAG inhibited the binding of FAM-DAG; Homing of FAM-labeled peptide to hippocampus [2]: specifically homed AD hippocampus |
| SSVDKL [SEQ ID NO: 9] | – | 0.3223% | – |
